Experimental data published in publication PMC9792171, “Design and synthesis of new thiazolidinone/uracil derivatives as antiproliferative agents targeting EGFR and/or BRAF^V600E” (Frontiers in Chemistry, 2022).

Tests used:
[1] = Cell viability assay (MTT), MCF-10A; assay type: cell-based; details: human, MCF-10A mammary gland epithelial cells, MCF-10A cells, incubated 4 days
Method: To test the viability of new compounds, the human mammary gland epithelial (MCF-10A) cell line was used ([Youssif et al., 2019]; [Mahmoud et al., 2022]). MCF-10A cells were incubated with compounds 3a-f and 5a-l for 4 days before being tested for viability using the MTT assay.
MTT assay was carried out to study the effect of compounds on mammary epithelial cells (MCF-10A) (Youssif, B. G. M. et al., 2019; Mahmoud, M. A., et al., 2022). The medium in which cells were propagated contained Dulbecco's modified Eagle's medium (DMEM)/ Ham's F-12 medium (1:1) supplemented with epidermal growth factor (20 ng/mL), hydrocortisone (500 ng/mL), insulin (10 μg/mL), 2 mM glutamine and 10% foetal calf serum. After every 2-3 days, the cells were passaged using trypsin ethylenediamine tetra acetic acid (EDTA). The cells were seeded at a density of 10^4 cells mL^-1 in flat-bottomed culture plates containing 96 wells each. After 24 h, medium was removed from the plates and the compounds in (in 0.1% DMSO) were added (in 200 μL medium to yield a final concentration of 0.1% v/v) to the wells of plates. A single compound was designated with four wells followed by incubation of plates for 96h at 37°C. After incubation, medium was removed completely from the plates followed by addition of MTT (0.4 mg/mL in medium) to each well and subsequent incubation of plates for 3h. MTT (along with the medium) was removed and DMSO (150μL) was added to each well of the culture plates, followed by vortexing and subsequent measurement of absorbance (at 540 nm) using microplate reader. The data are shown as percentage inhibition of proliferation in comparison with controls containing 0.1% DMSO.

[2] = test system: A-549 (epithelial cancer cell line); experiment: Antiproliferative MTT assay, A-549; assay type: cell-based; details: Homo sapiens, A549; A-549, MTT; read-out: Antiproliferative activity IC50 ± SEM (nM) A-549
Method: (§1) Using the MTT assay ([Abdelrahman et al., 2017]; [El-Sherief et al., 2018]) and doxorubicin as the reference drug, 3a-f and 5a-l were tested for antiproliferative activity against four human cancer cell lines: Panc-1 (pancreas cancer cell line), MCF-7 (breast cancer cell line), HT-29 (colon cancer cell line), and A-549 (epithelial cancer cell line).
(§2) To explore the antiproliferative potential of compounds MTT assay was performed according to previously reported procedure (El-Sherief, H.A.M., et al., 2018; Abdelrahman, M. H., et al., 2017) using different cell lines to explore the antiproliferative potential of compounds propidium iodide fluorescence assay was performed using different cell lines. To calculate the total nuclear DNA, a fluorescent dye (propidium iodide, PI) is used which can attach to the DNA, thus offering a quick and precise technique. PI cannot pass through the cell membrane and its signal intensity can be considered as directly proportional to quantity of cellular DNA. Cells whose cell membranes are damaged or have changed permeability are counted as dead ones. The assay was performed by seeding the cells of different cell lines at a density of 3000-7500 cells/well (in 200µl medium) in culture plates followed by incubation for 24h at 37 °C in humidified 5% CO2/95% air atmospheric conditions. The medium was removed; the compounds were added to the plates at 10 µM concentrations (in 0.1% DMSO) in triplicates, followed by incubation for 48 h. DMSO (0.1%) was used as control. After incubation, medium was removed followed by the addition of PI (25 µl, 50µg/mL in water/medium) to each well of the plates. At -80 °C, the plates were allowed to freeze for 24 h, followed by thawing at 25 °C. A fluorometer (Polar-Star BMG Tech) was used to record the readings at excitation and emission wavelengths of 530 and 620 nm for each well. The percentage cytotoxicity of compounds was calculated using the following formula: […]

[3] = test system: MCF-7 (breast cancer cell line); experiment: Antiproliferative MTT assay, MCF-7; assay type: cell-based; details: Homo sapiens, MCF7; MCF-7, MTT; read-out: Antiproliferative activity IC50 ± SEM (nM) MCF-7
Method: as §1, §2

[4] = test system: Panc-1 (pancreas cancer cell line); experiment: Antiproliferative MTT assay, Panc-1; assay type: cell-based; details: Homo sapiens; Panc-1, MTT; read-out: Antiproliferative activity IC50 ± SEM (nM) Panc-1
Method: as §1, §2

[5] = test system: HT-29 (colon cancer cell line); experiment: Antiproliferative MTT assay, HT-29; assay type: cell-based; details: Homo sapiens; HT-29, MTT; read-out: Antiproliferative activity IC50 ± SEM (nM) HT-29
Method: as §1, §2

[6] = test system: four human cancer cell lines (A-549, MCF-7, Panc-1, HT-29); experiment: Antiproliferative MTT assay, average of four cancer cell lines (GI50); assay type: cell-based; details: for IC50: Homo sapiens, average of A-549, MCF-7, Panc-1, HT-29
Method: Using the MTT assay ([Abdelrahman et al., 2017]; [El-Sherief et al., 2018]) and doxorubicin as the reference drug, 3a-f and 5a-l were tested for antiproliferative activity against four human cancer cell lines: Panc-1 (pancreas cancer cell line), MCF-7 (breast cancer cell line), HT-29 (colon cancer cell line), and A-549 (epithelial cancer cell line). […]
as §2

| SMILES | viability at 4 days, 50 µM [1] [%] | IC50 [2] [nM] | IC50 [3] [nM] | IC50 [4] [nM] | IC50 [5] [nM] | IC50 [6] [nM] | melting point | fold less potent than compound 5j (GI50) ([6]; ratio of GI50 values) |
| --- | --- | --- | --- | --- | --- | --- | --- | --- |
| CCOC(=O)/C=C1\S/C(=N\c2c[nH]c(=O)[nH]c2=O)N(C)C1=O [Compound 5e, (Z)-Ethyl-2-((Z)-2-((2,4-dioxo-1,2,3,4-tetrahydropyrimidin-5-yl)imino)-3-methyl-4-oxo-thiazolidin-5-ylidene)acetate] | 86 | 7200 ± 600 | 6700 ± 700 | 7300 ± 700 | 7200 ± 700 | 7100 | 302 to 304 °C | – |
| Cc1ccc(NC(=S)Nc2c[nH]c(=O)[nH]c2=O)cc1 [Compound 3b, 1-(2,4-Dioxo-1,2,3,4-tetrahydropyrimidin-5-yl)-3-(p-tolyl)thiourea] | 87 | 3700 ± 300 | 3600 ± 300 | 4100 ± 300 | 3900 ± 300 | 3800 | 338 to 340 °C | – |
| COc1cccc2c1C(=O)c1c(O)c3c(c(O)c1C2=O)C[C@@](O)(C(=O)CO)C[C@@H]3O[C@H]1C[C@H](N)[C@H](O)[C@H](C)O1 [Doxorubicin, reference compound] | – | 1200 ± 100 | 900 ± 100 | 1400 ± 100 | 1000 ± 100 | 1100 | – | – |
| COC(=O)/C=C1\S/C(=N\c2c[nH]c(=O)[nH]c2=O)N(c2ccccc2)C1=O [Compound 5g, (Z)-Methyl-2-((Z)-2-((2,4-dioxo-1,2,3,4-tetrahydropyrimidin-5-yl)imino)-4-oxo-3-phenyl-thiazolidin-5-ylidene)acetate] | 87 | 2700 ± 200 | 2200 ± 200 | 2900 ± 200 | 2200 ± 200 | 2500 | 302 to 304 °C | – |
| COC(=O)/C=C1\S/C(=N\c2c[nH]c(=O)[nH]c2=O)N(C)C1=O [Compound 5k, (Z)-Methyl-2-((Z)-2-((2,4-dioxo-1,2,3,4-tetrahydropyrimidin-5-yl)imino)-3-methyl-4-oxothiazolidin-5-ylidene)acetate] | 89 | 5700 ± 600 | 5100 ± 500 | 5900 ± 500 | 6200 ± 600 | 5700 | 300 to 302 °C | – |
| O=c1[nH]cc(NC(=S)NCc2ccccc2)c(=O)[nH]1 [Compound 3d, 1-Benzyl-3-(2,4-dioxo-1,2,3,4-tetrahydropyrimidin-5-yl)thiourea] | 91 | 4100 ± 400 | 3900 ± 400 | 4300 ± 400 | 4300 ± 400 | 4150 | 350 to 352 °C (dec.) | – |
| O=c1[nH]cc(NC(=S)Nc2ccccc2)c(=O)[nH]1 [Compound 3a, 1-(2,4-Dioxo-1,2,3,4-tetrahydropyrimidin-5-yl)-3-phenylthiourea] | 86 | 8900 ± 800 | 8500 ± 800 | 8800 ± 800 | 9100 ± 800 | 8800 | 340 to 342 °C | – |
| C=CCN1C(=O)/C(=C/C(=O)OCC)S/C1=N\c1c[nH]c(=O)[nH]c1=O [Compound 5f, (Z)-Ethyl-2-((Z)-3-allyl-2-((2,4-dioxo-1,2,3,4-tetrahydropyrimidin-5-yl)imino)-4-oxo-thiazolidin-5-ylidene)acetate] | 89 | 8200 ± 700 | 7900 ± 700 | 8800 ± 700 | 8900 ± 700 | 8500 | 310 to 312 °C | – |
| CCOC(=O)/C=C1\S/C(=N\c2c[nH]c(=O)[nH]c2=O)N(c2ccccc2)C1=O [Compound 5a, (Z)-Ethyl-2-((Z)-2-((2,4-dioxo-1,2,3,4-tetrahydropyrimidin-5-yl)imino)-4-oxo-3-phenyl-thiazolidin-5-ylidene)acetate] | 91 | 3500 ± 300 | 3100 ± 300 | 3300 ± 300 | 3900 ± 300 | 3450 | 320 to 322 °C | – |
| CCOC(=O)/C=C1\S/C(=N\c2c[nH]c(=O)[nH]c2=O)N(Cc2ccccc2)C1=O [Compound 5d, (Z)-Ethyl-2-((Z)-3-benzyl-2-((2,4-dioxo-1,2,3,4-tetrahydropyrimidin-5-yl)imino)-4-oxo-thiazolidin-5-ylidene)acetate] | 86 | 4900 ± 500 | 4700 ± 400 | 5500 ± 500 | 5500 ± 500 | 5150 | – | approximately 5 fold |
| C=CCN1C(=O)/C(=C/C(=O)OC)S/C1=N\c1c[nH]c(=O)[nH]c1=O [Compound 5l, (Z)-Methyl-2-((Z)-3-allyl-2-((2,4-dioxo-1,2,3,4-tetrahydropyrimidin-5-yl)imino)-4-oxothiazolidin-5-ylidene)acetate] | 86 | 6000 ± 600 | 6500 ± 600 | 6400 ± 600 | 6600 ± 600 | 6400 | 314 to 316 °C | – |
| CNC(=S)Nc1c[nH]c(=O)[nH]c1=O [Compound 3e, 1-(2,4-Dioxo-1,2,3,4-tetrahydropyrimidin-5-yl)-3-methylthiourea] | 89 | 9700 ± 800 | 9600 ± 800 | 9800 ± 800 | 10800 ± 900 | 10000 | 332 to 334 °C | – |
| C=CCNC(=S)Nc1c[nH]c(=O)[nH]c1=O [Compound 3f, 1-Allyl-3-(2,4-dioxo-1,2,3,4-tetrahydropyrimidin-5-yl)thiourea] | 89 | 3800 ± 300 | 3700 ± 300 | 3900 ± 300 | 4100 ± 300 | 3900 | 348 to 350 °C (dec.) | – |
